Assay results reported in ChEMBL document CHEMBL1126672, “1,3-dioxolanylpurine nucleosides (2R,4R) and (2R,4S) with selective anti-HIV-1 activity in human lymphocytes” (J Med Chem, 1993).

Columns and labels:
[1] = Cytotoxicity against uninfected PHA-stimulated human peripheral blood mononuclear (PBM) cells was determined.; type: cell-based
[2] = test system: CCRF-CEM; experiment: Cytotoxicity against uninfected PHA-stimulated CEM cells was determined.; type: cell-based; details: Homo sapiens
[3] = Antiviral activity was evaluated in mitogen-stimulated human peripheral blood mononuclear (PBM) cells infected with HIV-1 strain LAV.; type: functional
[4] = Antiviral activity was evaluated in mitogen-stimulated human peripheral blood mononuclear (PBM) cells infected with HIV-1 strain LAV; type: functional
[5] = test system: Vero; experiment: Cytotoxicity against uninfected PHA-stimulated vero cells was determined; type: cell-based; details: Chlorocebus sabaeus
[6] = test system: CCRF-CEM; experiment: Cytotoxicity against uninfected PHA-stimulated CEM cells was determined; type: cell-based; details: Homo sapiens
[7] = Cytotoxicity against uninfected PHA-stimulated human peripheral blood mononuclear (PBM) cells was determined; type: cell-based
[8] = test system: Vero; experiment: Cytotoxicity against uninfected PHA-stimulated vero cells was determined.; type: cell-based; details: Chlorocebus sabaeus

| Compound | EC50 [3] | EC50 [4] | IC50 [1] | IC50 [2] | IC50 [5] | IC50 [6] | IC50 [7] | IC50 [8] |
| --- | --- | --- | --- | --- | --- | --- | --- | --- |
| Cc1cn([C@H]2C[C@H](N=[N+]=[N-])[C@@H](CO)O2)c(=O)[nH]c1=O [ZIDOVUDINE] | 0.004 µM |  | > 100 µM | 30.9 µM |  |  |  |  |
| Nc1nc(Cl)nc2c1ncn2[C@H]1CO[C@@H](CO)O1 | 1.7 µM |  | > 100 µM | > 100 µM |  |  |  | > 100 µM |
| Nc1nc(Cl)nc2c1ncn2[C@@H]1CO[C@@H](CO)O1 | 39.9 µM |  | > 100 µM | > 100 µM |  |  |  | > 100 µM |
| CSc1ncnc2c1ncn2[C@H]1CO[C@@H](CO)O1 |  | 25.1 µM |  |  | > 100 µM | > 100 µM | > 100 µM |  |
| CNc1nc(Cl)nc2c1ncn2[C@H]1CO[C@@H](CO)O1 | 40 µM |  | > 100 µM | > 100 µM |  |  |  | > 100 µM |

More lines, main results first:

| EC50 [3] | EC50 [4] | Compound | IC50 [1] | IC50 [2] | IC50 [5] | IC50 [6] | IC50 [7] | IC50 [8] |
| --- | --- | --- | --- | --- | --- | --- | --- | --- |
|  | 0.03 µM | Nc1nc2c(ncn2[C@H]2CO[C@@H](CO)O2)c(=O)[nH]1 |  |  | > 100 µM | > 100 µM | > 100 µM |  |
| 11.1 µM |  | OC[C@@H]1OC[C@@H](n2cnc3c(Cl)ncnc32)O1 | > 100 µM | 57.6 µM |  |  |  | > 100 µM |
| 22.8 µM |  | OC[C@@H]1OC[C@H](n2cnc3c(Cl)ncnc32)O1 | > 100 µM | > 100 µM |  |  |  | > 100 µM |
| 26.5 µM |  | OC[C@@H]1OC[C@H](n2cnc3c(S)ncnc32)O1 | > 100 µM | > 100 µM |  |  |  | > 100 µM |
